The supplement of paper PMC4862054

Tests used:
Conditions in all cases: incubation time: 72 h
BT-474 [1] = assay: normalised response (% of control), CellTiter-Glo; higher = more viable cells (100 = DMSO, 0 = benzethonium chloride kill control)
Summary of the method: (§1)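 After 72 h with compound in 384-well plates, breast cancer cell lines seeded as 20 µl suspension were read for CellTox Green fluorescence at 485/520 nm. CellTiter-Glo luminescence was then read after 10 min at room temperature. Compound was present at 5 concentrations in 10-fold steps over a 10,000-fold range set per compound, and plates were normalised to 0.1 % DMSO (100) and a positive kill control (0). Values are normalised signals, each at a single concentration.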

BT-549 [2] = assay: as above
Summary of the method: as §1

CAL-120 [3] = assay: as above
Summary of the method: as §1

CAL-148 [4] = assay: as above
Summary of the method: as §1

CAL-51 [5] = assay: as above
Summary of the method: as §1

CAL-85-1 [6] = assay: as above
Summary of the method: as §1

DU-4475 [7] = assay: as above
Summary of the method: as §1

HCC1143 [8] = assay: as above
Summary of the method: as §1

HCC1599 [9] = assay: as above
Summary of the method: as §1

HCC1937 [10] = assay: as above
Summary of the method: as §1

HDQ-P1 [11] = assay: as above
Summary of the method: as §1

Hs578T [12] = assay: as above
Summary of the method: as §1

MCF-10A = assay: as above
Summary of the method: as §1

MDA-MB-231 [13] = assay: as above
Summary of the method: as §1

MDA-MB-436 [14] = assay: as above
Summary of the method: as §1

MDA-MB-453 [15] = assay: as above
Summary of the method: as §1

MDA-MB-468 [16] = assay: as above
Summary of the method: as §1

MFM-223 [17] = assay: as above
Summary of the method: as §1

SK-BR-3 [18] = assay: as above
Summary of the method: as §1

BT-474 [19] = assay: normalised viability (% of control), CellTiter-Blue; higher = more viable cells (100 = DMSO, 0 = benzethonium chloride kill control)
Protocol: (§2)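 DSRT, CellTiter-Blue viability, 72 h incubation. Signal is normalised to DMSO and benzethonium chloride controls. Value is the normalised response at dose 1.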

BT-549 [20] = assay: as above
Protocol: as §2

CAL-120 [21] = assay: as above
Protocol: as §2

CAL-148 [22] = assay: as above
Protocol: as §2

CAL-51 [23] = assay: as above
Protocol: as §2

CAL-85-1 [24] = assay: as above
Protocol: as §2

DU-4475 [25] = assay: as above
Protocol: as §2

HCC1143 [26] = assay: as above
Protocol: as §2

HCC1599 [27] = assay: as above
Protocol: as §2

HCC1937 [28] = assay: as above
Protocol: as §2

HDQ-P1 [29] = assay: as above
Protocol: as §2

Hs578T [30] = assay: as above
Protocol: as §2

MDA-MB-231 [31] = assay: as above
Protocol: as §2

MDA-MB-436 [32] = assay: as above
Protocol: as §2

MDA-MB-453 [33] = assay: as above
Protocol: as §2

MDA-MB-468 [34] = assay: as above
Protocol: as §2

MFM-223 [35] = assay: as above
Protocol: as §2

SK-BR-3 [36] = assay: as above
Protocol: as §2

| SMILES | normalised response (BT-474 [1]) | normalised response (BT-549 [2]) | normalised response (CAL-120 [3]) | normalised response (CAL-148 [4]) | normalised response (CAL-51 [5]) | normalised response (CAL-85-1 [6]) | normalised response (DU-4475 [7]) | normalised response (HCC1143 [8]) | normalised response (HCC1599 [9]) | normalised response (HCC1937 [10]) | normalised response (HDQ-P1 [11]) | normalised response (Hs578T [12]) | normalised response (MCF-10A) | normalised response (MDA-MB-231 [13]) | normalised response (MDA-MB-436 [14]) | normalised response (MDA-MB-453 [15]) | normalised response (MDA-MB-468 [16]) | normalised response (MFM-223 [17]) | normalised response (SK-BR-3 [18]) | normalised viability (BT-474 [19]) | normalised viability (BT-549 [20]) | normalised viability (CAL-120 [21]) | normalised viability (CAL-148 [22]) | normalised viability (CAL-51 [23]) | normalised viability (CAL-85-1 [24]) | normalised viability (DU-4475 [25]) | normalised viability (HCC1143 [26]) | normalised viability (HCC1599 [27]) | normalised viability (HCC1937 [28]) | normalised viability (HDQ-P1 [29]) | normalised viability (Hs578T [30]) | normalised viability (MDA-MB-231 [31]) | normalised viability (MDA-MB-436 [32]) | normalised viability (MDA-MB-453 [33]) | normalised viability (MDA-MB-468 [34]) | normalised viability (MFM-223 [35]) | normalised viability (SK-BR-3 [36]) |
| --- | --- | --- | --- | --- | --- | --- | --- | --- | --- | --- | --- | --- | --- | --- | --- | --- | --- | --- | --- | --- | --- | --- | --- | --- | --- | --- | --- | --- | --- | --- | --- | --- | --- | --- | --- | --- | --- |
| COc1ncc(-c2ccc3nccc(-c4ccnnc4)c3c2)cc1NS(=O)(=O)c1ccc(F)cc1F (0.1 nM) | 101% | 101% | 98.4% | 97.9% | 112% | 98.1% | 99.8% | 106% | 92.1% | 98.2% | 99.8% | 103% | 120% | 104% | 97.7% | 125% | 100% | 111% | 108% | 115% | 108% | 81% | 99.6% | 93.7% | 90.2% | 108% | 89.1% | 83.8% | 100% | 103% | 112% | 92% | 113% | 94.3% | 101% | 91.4% | 86.9% |
| C[C@@]1(C(=O)Nc2ccc(F)nc2)CCCN1c1nc(Nc2cc(C3CC3)n[nH]2)c2cccn2n1 (1 nM) | 93% | 95.9% | 87.5% | 83.3% | 95.1% | 93% | 95.2% | 89% | 90.4% | 88.7% | 91.2% | 95.3% | 77.6% | 94.2% | 83.9% | 91.9% | 93.6% | 87.7% | 87.3% | 99% | 88.2% | 90.9% | 97.1% | 99.6% | 92.9% | 105% | 92% | 102% | 118% | 95.4% | 104% | 115% | 122% | 98.1% | 107% | 96.1% | 101% |
| COc1c(C)cnc(Cn2cnc3c(Cl)nc(N)nc32)c1C [BIIB021] (1 nM) | 99.1% | 95.6% | 103% | 106% | 74% | 98.1% | 103% | 97.6% | 124% | 103% | 95.6% | 106% | 104% | 112% | 99% | 106% | 101% | 102% | 93.6% | 91.7% | 97.7% | 76.8% | 96.5% | 101% | 78.1% | 87.7% | 82.9% | 143% | 93.4% | 86.4% | 105% | 76.3% | 102% | 93.9% | 94.6% | 80.8% | 75.8% |
| CC(C)C[C@H](NC(=O)[C@H](Cc1ccccc1)NC(=O)c1cnccn1)B(O)O [Bortezomib] (0.1 nM) | 98.6% | 91.5% | 102% | 95.7% | 90.9% | 95.6% | 103% | 100% | 95.9% | 96.2% | 93.6% | 104% | 113% | 101% | 93.4% | 103% | 89.8% | 103% | 101% | 75.1% | 82.3% | 98.8% | 104% | 97.3% | 104% | 129% | 98.8% | 122% | 82.9% | 92.2% | 96.4% | 91.9% | 103% | 101% | 91.8% | 101% | 88.8% |
| CS(=O)(=O)OCCCCOS(C)(=O)=O [Busulfan] (10 nM) | 102% | 103% | 92.4% | 96% | 87.1% | 104% | 106% | 99.3% | 84.3% | 95.5% | 95.6% | 101% | 104% | 99.2% | 89.5% | 108% | 97.3% | 102% | 111% | 82.1% | 92.2% | 112% | 131% | 88.3% | 105% | 104% | 100% | 105% | 78.8% | 106% | 92% | 112% | 105% | 117% | 102% | 88.7% | 97% |
| C#Cc1cccc(Nc2ncnc3cc(OC)c(OCCCCCCC(=O)NO)cc23)c1 [CUDC-101] (1 nM) | 96.5% | 101% | 100% | 98.2% | 74.1% | 94.8% | 99.1% | 102% | 108% | 96.6% | 97% | 101% | 90.8% | 109% | 98.6% | 108% | 93.8% | 98.5% | 90.8% | 108% | 96% | 79.4% | 97.1% | 111% | 77.3% | 97.5% | 79.9% | 115% | 85.9% | 85.7% | 94.9% | 94.9% | 96.4% | 88% | 94.4% | 78% | 82.3% |
| COc1cccc2c1C(=O)c1c(O)c3c(c(O)c1C2=O)C[C@@](O)(C(C)=O)C[C@@H]3O[C@H]1C[C@H](N)[C@H](O)[C@H](C)O1 [Daunorubicin] (0.1 nM) | 108% | 106% | 99% | 112% | 108% | 102% | 100% | 103% | 104% | 95.6% | 104% | 107% | 112% | 105% | 129% | 112% | 102% | 108% | 101% | 101% | 100% | 87.8% | 106% | 99.2% | 88.7% | 88.2% | 102% | 101% | 115% | 98.8% | 130% | 103% | 99.1% | 107% | 100% | 97.3% | 85.2% |
| CN1CCN(c2ccc3nc(-c4c(N)c5c(F)cccc5[nH]c4=O)[nH]c3c2)CC1 [Dovitinib] (1 nM) | 99.9% | 102% | 94.9% | 98.2% | 106% | 100% | 96.2% | 98.3% | 105% | 96.3% | 96% | 103% | 89.3% | 102% | 99.5% | 102% | 99.6% | 95.4% | 94.1% | 110% | 96.2% | 78.8% | 104% | 114% | 82% | 113% | 87.3% | 92.6% | 92.2% | 87.4% | 96.5% | 84.5% | 105% | 98.3% | 89.2% | 80.6% | 77.6% |
